Molecules are shown by their SMILES.

The experiment deals with RPMI1788 (normal B lymphocytes). Nature of the experiment: Cell viability, trypan blue exclusion. Type of experiment: cell-based. The note with it: Homo sapiens, RPMI-1788; 48 h of treatment; normal cells; read-out: IC50 ± SD, cell viability, RPMI1788. The procedure: U-937 (acute myeloid leukemia), RAJI (Burkitt’s lymphoma), PC-3 (prostate cancer), and MDA-MB-231 (breast cancer) cell lines were obtained from the Deutsche Sammlung für Mikroorganismen and Zellkulturen (DSZM, Braunschweig, Germany) and were cultured in RPMI 1640 (Lonza, Verviers, Belgium) complemented with 10% FBS (Lonza, Verviers, Belgium) and 1% antibiotic-antimycotic (Lonza). RPMI1788 (normal B lymphocytes) and KG-1 (acute myeloid leukemia) cell lines were obtained from the American Type Culture Collection (ATCC) and were maintained in RPMI 1640 complemented with 20% FBS and IMDM complemented with 10% FBS, respectively. Cell lines were treated with compounds at the indicated concentrations in the exponential growth phase.
Proliferation and viability of U-937, KG-1, RAJI, PC-3, MDA-MB-231, RPMI1788, PBMCs, and PHA_PBMCs were assessed by trypan blue exclusion assays at the indicated time points. Nuclear morphology changes associated with apoptosis and necrosis were evaluated by fluorescence microscopy after Hoechst and propidium iodide (PI) staining as previously described.
IC50 values of compounds against cellular viability were determined by using nonlinear regression fitting curves with GraphPad Prism 8 or CalcuSyn software The t test used for statistical analyses was performed with GraphPad Prism 8. […]

With `O=C(Nc1ccc(NC(=O)c2ccc(Nc3ccnc4ccccc34)cc2)cc1)OCc1ccccc1` [MC3353, Benzyl (4-(4-(quinolin-4-ylamino)benzamido)phenyl)carbamate], the half-maximal inhibitory concentration (IC50) – broadly, the concentration needed to halve the response being measured – was determined as 2.4 ± 0.2 µM.

The record behind these values is PMC6501426 (Clinical Epigenetics, 2019).
